US12203089B2, “Plants having increased tolerance to herbicides” (BASF SE, priority 2015, dated 2025)

Experiments:
Type in all cases: in vivo
Brassica napus wildtype = assay: Greenhouse herbicide tolerance, post emergent; settings: 7 days after treatment
Procedure: (§1) T1/T2 transgenic plants of Brassica napus containing cellulose synthase sequences or mutated gene variants thereof are tested for improved tolerance to herbicides in greenhouse studies with azine herbicides. For the pre-emergence treatment, the herbicides are applied directly after sowing by means of finely distributing nozzles. The containers are irrigated gently to promote germination and growth and subsequently covered with transparent plastic hoods until the plants have rooted. This cover causes uniform germination of the test plants, unless this has been impaired by the herbicides. For post emergence treatment, the test plants are first grown to a height of 3 to 15 cm, depending on the plant habit, and only then treated with the herbicides. For this purpose, the test plants are either sown directly, and grown in the same containers or they are first grown separately and transplanted into the test containers a few days prior to treatment.
(§2) Herbicide injury evaluations are taken at 1, 2 and 3 weeks after treatment. Plant biomass reduction is rated on a scale of 0% to 100%, 0% being no reduction of biomass compared to untreated control, and 100% being complete absence of biomass.

[1] = test system: Brassica napus expressing BnaAnng01240D (SEQ ID 20) variant S1038F; assay: Greenhouse herbicide tolerance, post emergent; settings: 7 days after treatment
Procedure: as §1, §2

[2] = test system: Brassica napus expressing BnaA03g52020D (SEQ ID 15) variant G1015R; assay: Greenhouse herbicide tolerance, post emergent; settings: 7 days after treatment
Procedure: as §1, §2

[3] = test system: Brassica napus expressing BnaA01g04600D (SEQ ID 21) variant G1012R; assay: Greenhouse herbicide tolerance, post emergent; settings: 7 days after treatment
Procedure: as §1, §2

[4] = test system: Brassica napus expressing BnaA03g55200D (SEQ ID 12) variant S1041L; assay: Greenhouse herbicide tolerance, post emergent; settings: 7 days after treatment
Procedure: as §1, §2

[5] = test system: Brassica napus expressing BnaA03g55200D (SEQ ID 12) variant S1038F; assay: Greenhouse herbicide tolerance, post emergent; settings: 7 days after treatment
Procedure: as §1, §2

[6] = test system: Brassica napus expressing BnaAnng01240D (SEQ ID 20) variant S1041L; assay: 6-well plate injury test, T1 seeds on vermiculite; settings: 7 days after treatment
Procedure: (§3) Transgenic Brassica napus plants are assayed for improved tolerance to azine herbicides like e. g. 6-cyclopentyl-N4-(2,3,4,5,6-pentafluorophenyl)-1,3,5-triazine-2,4-diamine in 6-well plates. Therefore, 5-6 T1 seeds are sown on vermiculite and watered with half-strength murashige skoog nutrient solution, pH 5.8 (Murashige and Skoog (1962) Physiologia Plantarum 15: 473-497). Compounds are dissolved in dimethylsulfoxid (DMSO) and added to the medium (final DMSO concentration 0.1%). Multi well plates are incubated in a growth chamber at 22° C., 75% relative humidity and 110 μmol Phot*m^−2*s^−1 with 14: 10 h light: dark photoperiod. Growth inhibition is evaluated seven to ten days after seeding in comparison to wild type plants. Plant injury is rated on a scale of 0% to 100%, 0% being no injury and 100% being complete death.

[7] = test system: Brassica napus expressing BnaAnng01240D (SEQ ID 20) variant S1038F; assay: 6-well plate injury test, T1 seeds on vermiculite; settings: 7 days after treatment
Procedure: as §3

[8] = test system: Arabidopsis thaliana expressing AtCesA1_wt (SEQ ID 1); assay: 48-well plate growth inhibition, T2 seeds, tolerance factor; settings: based on IC50 values of growth inhibition, seven to ten days after seeding
Procedure: (§4) Transgenic Arabidopsis thaliana plants (T2) are assayed for improved tolerance to azine herbicides like e. g. 6-cyclopentyl-N4-(2,3,4,5,6-pentafluorophenyl)-1,3,5-triazine-2,4-diamine in 48-well plates. Therefore, T2 seeds are surface sterilized by stirring for 5 min in ethanol+water (70+30 by volume), rinsing one time with ethanol+water (70+30 by volume) and two times with sterile, deionized water. The seeds are resuspended in 0.1% agar dissolved in water (w/v) Four to five seeds per well are plated on solid nutrient medium consisting of half-strength murashige skoog nutrient solution, pH 5.8 (Murashige and Skoog (1962) Physiologia Plantarum 15: 473-497). Compounds are dissolved in dimethylsulfoxid (DMSO) and added to the medium prior solidification (final DMSO concentration 0.1%). Multi well plates are incubated in a growth chamber at 22° C., 75% relative humidity and 110 μmol Phot*m^−2*s^−1 with 14:10 h light:dark photoperiod. Growth inhibition is evaluated seven to ten days after seeding in comparison to wild type plants. Tolerance factors are calculated based on IC50 values of growth inhibition of transformed versus non-transformed Arabidopsis plants.

[9] = test system: Arabidopsis thaliana expressing AtCesA1_G1009D_G1013R (SEQ ID 1); assay: as above; settings: based on IC50 values of growth inhibition, seven to ten days after seeding
Procedure: as §4

[10] = test system: Arabidopsis thaliana expressing AtCesA3_S983F_S1040L (SEQ ID 3); assay: as above; settings: based on IC50 values of growth inhibition, seven to ten days after seeding
Procedure: as §4

[11] = test system: Arabidopsis thaliana expressing AtCesA3_S983F_S1037F (SEQ ID 3); assay: as above; settings: based on IC50 values of growth inhibition, seven to ten days after seeding
Procedure: as §4

[12] = test system: Arabidopsis thaliana expressing AtCesA1_P1010L_G1013R (SEQ ID 1); assay: as above; settings: based on IC50 values of growth inhibition, seven to ten days after seeding
Procedure: as §4

## Nc1nc(Nc2c(F)c(F)c(F)c(F)c2F)nc(C2CCCC2)n1 [6-cyclopentyl-N4-(2,3,4,5,6-pentafluorophenyl)-1,3,5-triazine-2,4-diamine]
Brassica napus wildtype; 3.9 g/ha
  average phytotox value: 23%
Brassica napus wildtype; 7.8 g/ha
  average phytotox value: 34%
Brassica napus wildtype; 15.6 g/ha
  average phytotox value: 59%
Brassica napus wildtype; 31.25 g/ha
  average phytotox value: 73%
[1]; 1st listed line, 3.9 g/ha
  average phytotox value: 1%
[1]; 1st listed line, 7.8 g/ha
  average phytotox value: 5%
[1]; 1st listed line, 15.6 g/ha
  average phytotox value: 8%
[1]; 1st listed line, 31.25 g/ha
  average phytotox value: 27%
[1]; 2nd listed line, 3.9 g/ha
  average phytotox value: 1%
[1]; 2nd listed line, 7.8 g/ha
  average phytotox value: 10%
[1]; 2nd listed line, 15.6 g/ha
  average phytotox value: 41%
[1]; 2nd listed line, 31.25 g/ha
  average phytotox value: 50%
[2]; 1st listed line, 3.9 g/ha
  average phytotox value: 18%
[2]; 1st listed line, 7.8 g/ha
  average phytotox value: 43%
[2]; 1st listed line, 15.6 g/ha
  average phytotox value: 41%
[2]; 1st listed line, 31.25 g/ha
  average phytotox value: 53%
[2]; 2nd listed line, 3.9 g/ha
  average phytotox value: 37%
[2]; 2nd listed line, 7.8 g/ha
  average phytotox value: 61%
[2]; 2nd listed line, 15.6 g/ha
  average phytotox value: 45%
[2]; 2nd listed line, 31.25 g/ha
  average phytotox value: 67%
[3]; 3.9 g/ha
  average phytotox value: 17%
[3]; 7.8 g/ha
  average phytotox value: 35%
[3]; 15.6 g/ha
  average phytotox value: 35%
[3]; 31.25 g/ha
  average phytotox value: 60%
[4]; 3.9 g/ha
  average phytotox value: 15%
[4]; 7.8 g/ha
  average phytotox value: 27%
[4]; 15.6 g/ha
  average phytotox value: 42%
[4]; 31.25 g/ha
  average phytotox value: 51%
[5]; 1st listed line, 3.9 g/ha
  average phytotox value: 23%
[5]; 1st listed line, 7.8 g/ha
  average phytotox value: 25%
[5]; 1st listed line, 15.6 g/ha
  average phytotox value: 29%
[5]; 1st listed line, 31.25 g/ha
  average phytotox value: 34%
[5]; 2nd listed line, 3.9 g/ha
  average phytotox value: 7%
[5]; 2nd listed line, 7.8 g/ha
  average phytotox value: 19%
[5]; 2nd listed line, 15.6 g/ha
  average phytotox value: 20%
[5]; 2nd listed line, 31.25 g/ha
  average phytotox value: 44%
[6]; BnaAnng01240D S1041L event 1, 5*10^-8M
  average phytotox value: 55%
[6]; BnaAnng01240D S1041L event 1, 10^-6M
  average phytotox value: 80%
[6]; BnaAnng01240D S1041L event 1, 10^-7M
  average phytotox value: 70%
[6]; BnaAnng01240D S1041L event 1, 10^-8M
  average phytotox value: 0%
[6]; BnaAnng01240D S1041L event 1, 10^-9M
  average phytotox value: 0%
[6]; BnaAnng01240D S1041L event 2, 5*10^-8M
  average phytotox value: 65%
[6]; BnaAnng01240D S1041L event 2, 10^-6M
  average phytotox value: 80%
[6]; BnaAnng01240D S1041L event 2, 10^-7M
  average phytotox value: 80%
[6]; BnaAnng01240D S1041L event 2, 10^-8M
  average phytotox value: 0%
[6]; BnaAnng01240D S1041L event 2, 10^-9M
  average phytotox value: 0%
[7]; BnaAnng01240D S1038F event 1, 5*10^-8M
  average phytotox value: 50%
[7]; BnaAnng01240D S1038F event 1, 10^-6M
  average phytotox value: 80%
[7]; BnaAnng01240D S1038F event 1, 10^-7M
  average phytotox value: 60%
[7]; BnaAnng01240D S1038F event 1, 10^-8M
  average phytotox value: 0%
[7]; BnaAnng01240D S1038F event 1, 10^-9M
  average phytotox value: 0%
[7]; BnaAnng01240D S1038F event 2, 5*10^-8M
  average phytotox value: 65%
[7]; BnaAnng01240D S1038F event 2, 10^-6M
  average phytotox value: 80%
[7]; BnaAnng01240D S1038F event 2, 10^-7M
  average phytotox value: 65%
[7]; BnaAnng01240D S1038F event 2, 10^-8M
  average phytotox value: 0%
[7]; BnaAnng01240D S1038F event 2, 10^-9M
  average phytotox value: 0%
[8]
  Relative tolerance rate as compared to non-transgenic Arabidopsis plants (non-transgenic = 1.0): 1
[9]
  Relative tolerance rate as compared to non-transgenic Arabidopsis plants (non-transgenic = 1.0): 1
[10]
  Relative tolerance rate as compared to non-transgenic Arabidopsis plants (non-transgenic = 1.0): 10
[11]
  Relative tolerance rate as compared to non-transgenic Arabidopsis plants (non-transgenic = 1.0): 10
[12]
  Relative tolerance rate as compared to non-transgenic Arabidopsis plants (non-transgenic = 1.0): 30
